Source: the supplement of paper PMC10949913

Assays:
Conditions in all cases: 48 h
[1] = test system: CU-ACC1; experiment: AC50 viability; higher = less potent
Procedure, shortened: (§1)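 Library compounds were tested at 11 concentrations against three adrenocortical carcinoma cell lines in 1,536-well plates. CellTiter-Glo luminescence was read after 48 h and normalised per plate to vehicle and empty-well controls. Only inhibitory or non-responding curve classes from fitted concentration-response curves contributed AC50 and area under the curve.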

[2] = test system: CU-ACC1; experiment: area under concentration-response curve (viability) (AUC (a.u.)); higher = less active
Procedure, shortened: as §1

[3] = test system: NCI-H295R; experiment: AC50 viability; higher = less potent
Procedure, shortened: as §1

[4] = test system: CU-ACC2; experiment: area under concentration-response curve (viability) (AUC (a.u.)); higher = less active
Procedure, shortened: as §1

[5] = test system: NCI-H295R; experiment: as above
Procedure, shortened: as §1

Structure (SMILES) | AC50 viability [1] | area under concentration-response curve [2] | AC50 viability [3] | area under concentration-response curve [4] | area under concentration-response curve [5]
CC(=O)N1CCN(CCOC2=CC=C(C=C2)C3CCN(CC3)/C4=N/[N]5C(=NN=C5C(F)(F)F)CC4)CC1 | 11.8 µM | 430 | – | – | –
C[C@H](NC1=C2N=C[NH]C2=NC=N1)C/3=C/C4=C(C(=CC=C4)Cl)C(=O)N3C5=CC=CC=C5 | 20.9 µM | 447 | – | – | –
N#CC1(c2cccc(C(=O)Nc3cc(Oc4ccc5nc(NC(=O)C6CC6)sc5n4)ccc3F)c2Cl)CC1 | 4.17 µM | 390 | – | – | –
CCOC1=CC(=CC=C1C/2=N/[C@@](C)(C3=CC=C(Cl)C=C3)[C@](C)(N2C(=O)N4CCN(CC4)CC(=O)N5CCOCC5)C6=CC=C(Cl)C=C6)C(C)(C)C | 16.3 µM | 440 | – | – | –
CN(C)CCCN\C1=C\2C(=O)N(C)C(=O)\N=C2N(C)C3=C1C=CC=C3 | 18.6 µM | 501 | – | – | –
CC1=CC=CC=C1CN2C(=O)C/3=C(/CCN(CC4=CC=CC=C4)C3)N\5CC\N=C25 | 6.61 µM | 313 | – | – | –
COc1cccc2c1CCCC2CCCN1CCN(C2CCCCC2)CC1 (stereo not drawn) | 16.6 µM | 501 | – | – | –
CCN(CC)CCCCNc1nc2cc(Cl)c(Cl)cc2nc1-c1ccc(-c2cccs2)s1 | 23.5 µM | 451 | – | – | –
COc1cc(N2CCC(N3CCN(C)CC3)CC2)ccc1Nc1ncnc(Nc2ccccc2[S+](=O)([O-])C(C)C)n1 | 0.00468 µM | 258 | – | – | –
CN1\C(=C(O)/C2=C(C=C(Cl)S2)[S+]1([O-])=O)C(=O)NC3=NC=CC=C3 | – | 434 | 0.118 µM | 421 | 380
CN1CCN([C@H]2CC[C@H](n3cc(-c4ccc(Oc5ccccc5)cc4)c4c(N)ncnc43)CC2)CC1 | – | 488 | 9.34 µM | 517 | 481
CN(C)C/C=C/C(=O)Nc1cccc(C(=O)Nc2cccc(Nc3ncc(Cl)c(-c4c[nH]c5ccccc45)n3)c2)c1 | – | 434 | 1.66 µM | 437 | 444
O=C(/C=C/c1cccnc1)NCCCCC1CCN(C(=O)c2ccccc2)CC1 | – | 300 | 0.0209 µM | 355 | 403
C[C@@H]1COCCN1c1cc(C2([S@+](C)(=N)[O-])CC2)nc(-c2ccnc3[nH]ccc23)n1 | – | 524 | 16.6 µM | 491 | 525
C/C(=C\c1csc(C)n1)[C@@H]1C[C@@H]2O[C@@H]2CCC[C@H](C)[C@H](O)[C@@H](C)C(=O)C(C)(C)[C@@H](O)CC(=O)O1 | – | 462 | 0.0132 µM | 569 | 347
COC(=O)[C@@H]1[C@H]2C[C@H]3c4[nH]c5ccccc5c4CCN3C[C@@H]2CC[C@@H]1O | – | 443 | 18.6 µM | 458 | 442
Cc1cc(-c2nc3cc(F)ccc3s2)ccc1NC(=O)[C@@H](N)CCCCN | – | 555 | 23.5 µM | 599 | 538
C/C=C(\C)C(=O)N[C@@H](c1ccccc1)[C@@H](O)C(=O)O[C@H]1C[C@@]2(O)[C@@H](OC(=O)c3ccccc3)[C@@H]3[C@]4(OC(C)=O)CO[C@@H]4C[C@H](O)[C@@]3(C)C(=O)[C@H](OC(C)=O)C(=C1C)C2(C)C | – | 447 | 0.833 µM | 515 | 418
CCN1CCN(Cc2ccc(NC(=O)c3ccc(C)c(NC(=O)c4cncc(-c5cccs5)c4)c3)cc2C(F)(F)F)CC1 | – | 501 | 7.42 µM | 521 | 432
COc1cc([C@@H]2c3cc4c(cc3[C@@H](O[C@@H]3O[C@@H]5CO[C@@H](c6cccs6)O[C@H]5[C@H](O)[C@H]3O)[C@H]3COC(=O)[C@H]23)OCO4)cc(OC)c1O | – | 509 | 11.8 µM | 608 | 532
C/C(=C\c1csc(C)n1)[C@@H]1C[C@@H]2O[C@]2(C)CCC[C@H](C)[C@H](O)[C@@H](C)C(=O)C(C)(C)[C@@H](O)CC(=O)N1 | – | 478 | 2.09 µM | 485 | 460
COc1cc(NCc2ccc3nc(N)nc(N)c3c2C)cc(OC)c1OC | – | 447 | 20.9 µM | 476 | 446

Structure (SMILES) | AC50 viability [1] | area under concentration-response curve [2] | AC50 viability [3] | area under concentration-response curve [4] | area under concentration-response curve [5]
CCOc1ccc(Nc2nc(-c3c(C)nc4ccccn34)cs2)cc1 | – | 493 | 2.95 µM | 497 | 487
CCNCC[S+]([O-])(=O)NC[C@]1(S\C(=N/N1C(=O)C(C)(C)C)NC(=O)C(C)(C)C)C2=CC=CC=C2 | – | 452 | 0.209 µM | 544 | 415
Oc1ccc(Nc2nc(-c3ccc(Cl)cc3)cs2)cc1 | – | 403 | 16.6 µM | 496 | 474
CCC[C@H](N[C@H]1CCc2cc(F)cc(F)c2C1)C(=O)Nc1cn(C(C)(C)CNCC(C)(C)C)cn1 | – | 522 | 23.5 µM | 584 | 455
Cc1[nH]c2ccccc2c1CCNCc1ccc(/C=C/C(=O)NO)cc1 | – | 378 | 4.17 µM | 403 | 376
C=CCn1c(=O)c2cnc(Nc3ccc(N4CCN(C)CC4)cc3)nc2n1-c1cccc(C(C)(C)O)n1 | – | 452 | 1.86 µM | 531 | 393
CC[C@]1(O)C[C@H]2CN(CCC3=C([NH]C4=C3C=CC=C4)[C@@](C2)(C(=O)OC)C5=CC6=C(C=C5OC)N(C=O)[C@H]7[C@](O)([C@H](OC(C)=O)[C@]8(CC)\C=C/CN9CC[C@]67[C@H]89)C(=O)OC)C1 | – | 504 | 3.32 µM | 590 | 471
Oc1ccc([C@@H]2Oc3ccc(O)cc3[C@@H]3CCC[C@@H]32)cc1 | – | 485 | 13.2 µM | 535 | 500
CC(=O)c1cnc2ccc(-c3cc(Cl)c(O)c(Cl)c3)nc2c1N[C@H]1CC[C@H](CN(C)C)CC1 | – | 491 | 0.959 µM | 433 | 373
COC1=CC=CC2=C1C(=NC(=N2)C3=CC=CS3)NN4C(=O)\C=C(C)/C4=O | – | 423 | 5.9 µM | 489 | 438
COc1c(C)c2c(c(O)c1C/C=C(\C)CCC(=O)O)C(=O)OC2 | – | 467 | 0.59 µM | 561 | 482
COC1=CC=C(C=C1)C2=NC3=CC(=CC=C3[NH]2)/C4=N/NC(=O)CC4C (stereo not drawn) | – | 532 | 18.6 µM | 632 | 541
CCC1=C[C@@H]2CN(C1)Cc1c([nH]c3ccccc13)[C@@](C(=O)OC)(c1cc3c(cc1OC)N(C)[C@H]1[C@@](O)(C(=O)OC)[C@H](OC(C)=O)[C@]4(CC)C=CCN5CC[C@]31[C@@H]54)C2 | – | 507 | 4.56 µM | 573 | 473
NC(=O)[C@@H](CCC(F)(F)F)N(Cc1ccc(-c2ncon2)cc1F)[S+](=O)([O-])c1ccc(Cl)cc1 | – | 441 | 20.9 µM | 476 | 469
CC(C)c1onc(-c2c(Cl)cccc2Cl)c1COc1ccc(/C=C/c2cccc(C(=O)O)c2)c(Cl)c1 | – | 442 | 13.2 µM | 508 | 480
Cc1cc2c(F)c(Oc3ncnn4cc(OCC(C)OC(=O)C(C)N)c(C)c34)ccc2[nH]1 (stereo not drawn) | – | 473 | 18.6 µM | 468 | 481
Cc1cccc(/C=N/Nc2cc(N3CCOCC3)nc(OCCc3ccccn3)n2)c1 | – | 531 | 18.6 µM | 573 | 518
CC(/C=C/[C@@H]1C[C@]1(C)c1ccc2c(c1)C(C)(C)CCC2(C)C)=C\C(=O)O | – | 525 | 18.6 µM | 650 | 538
COc1ccc(-c2ccc3c(N4CCOCC4)nc(N4C[C@@H](C)O[C@@H](C)C4)nc3n2)cc1CO | – | 464 | 0.934 µM | 469 | 468
COc1ccc(-c2ccc3c(N4CCOC[C@@H]4C)nc(N4CCOC[C@@H]4C)nc3n2)cc1CO | – | 431 | 0.417 µM | 485 | 387
O=C(Nc1ncc(-c2cc(C(F)F)nn2-c2c(Cl)cccc2Cl)s1)C1CC1 | – | 501 | 0.661 µM | 465 | 467
COc1ccc(/C=C\c2cc(OC)c(OC)c(OC)c2)cc1O | – | 505 | 0.00934 µM | 474 | 333
